Measured values reported in patent publication US6790848B2, “4-piperazinylindole derivatives with 5-HT6 receptor affinity” (Syntex (U.S.A.) LLC, priority 2001, dated 2004).
Where a name gives a salt, the structure may show the parent alone.

Row | Compound | melting point
1 | O=S(=O)(c1ccccc1)n1cc(Br)c2c(N3CCNCC3)cccc21 (as salt: hydrochloride) [1-benzenesulfonyl-3-bromo-4-piperazin-1-yl-1H-indole] | 304 to 305 °C
2 | O=S(=O)(c1cccs1)n1ccc2c(N3CCNCC3)cccc21 (as salt: trifluoroacetate) [4-piperazin-1-yl-1-(thiophene-2-sulfonyl)-1H-indole] | 208 to 209 °C

Results, then the compound that gave them:

Row | melting point | Compound
3 | 256 to 257 °C | O=S(=O)(c1cccc(C(F)(F)F)c1)n1ccc2c(N3CCNCC3)cccc21 (as salt: hydrochloride) [4-piperazin-1-yl-1-(3-trifluoromethyl-benzenesulfonyl)-1H-indole]
4 | 172 to 173 °C (dec.) | CS(=O)(=O)c1ccc(F)c(S(=O)(=O)n2ccc3c(N4CCNCC4)cccc32)c1 (as salt: trifluoroacetate) [1-(2-fluoro-5-methanesulfonyl-benzenesulfonyl)-4-piperazin-1-yl-1H-indole]
5 | 230 to 231 °C | Cn1cnc(S(=O)(=O)n2ccc3c(N4CCNCC4)cccc32)c1 (as salt: trifluoroacetate)
